From ChEMBL document CHEMBL1649513, “Population pharmacokinetics of acyclovir in children and young people with malignancy after administration of intravenous acyclovir or oral valacyclovir” (Antimicrob Agents Chemother, 2009) come the findings set out here.

Data set [1] in a line: Bioavailability in immunocompromized children at […], po administered every 12 hrs. The format is ADME, organism-based. The following applies: human, in vivo.
The nature of data set [2]: Bioavailability in children and young patient with malignancy. It counts as ADME, organism-based. The following applies: human, in vivo.

Turning to `Nc1nc2c(ncn2COCCO)c(=O)[nH]1` [ACYCLOVIR], the values for the bioavailability in data set [1] and in data set [2] were 48% and 60%, respectively.

As a reminder, the bioavailability is dose-corrected exposure relative to a reference, in per cent. Read a high bioavailability as good availability.
